Measured values reported in PMC13266984 (Journal of medicinal chemistry, 2026).

What was measured:
Human ALDH3A1 = biological target: T1, Human ALDH3A1 (Homo sapiens, UniProt P30838); assay: ALDH3A1 biochemical assay (benzaldehyde/NADP+, diaphorase-resazurin readout, 1,536-well)
T1 sequence (P30838 1-453): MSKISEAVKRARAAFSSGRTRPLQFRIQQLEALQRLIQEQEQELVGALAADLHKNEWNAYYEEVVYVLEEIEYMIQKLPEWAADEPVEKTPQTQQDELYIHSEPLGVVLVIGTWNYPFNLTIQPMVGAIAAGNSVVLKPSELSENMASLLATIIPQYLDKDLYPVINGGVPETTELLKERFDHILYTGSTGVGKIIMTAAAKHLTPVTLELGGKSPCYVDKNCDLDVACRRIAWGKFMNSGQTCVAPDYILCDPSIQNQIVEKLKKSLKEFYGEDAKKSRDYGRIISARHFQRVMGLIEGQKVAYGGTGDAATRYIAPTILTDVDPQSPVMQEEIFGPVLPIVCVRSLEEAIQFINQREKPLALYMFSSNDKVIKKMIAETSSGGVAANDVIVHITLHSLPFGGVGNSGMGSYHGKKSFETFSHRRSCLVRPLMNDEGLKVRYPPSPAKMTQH

OE19 (3A1) = biological target: T2, OE19 (3A1) (Homo sapiens, UniProt P30838); assay: Cellular ALDEFLUOR assay in OE19 cells (preferential ALDH3A1 expression)
T2 sequence (P30838 1-453): T1 sequence (P30838 1-453)

[1] = Table S5, biochemical curve class
[2] = Table S4, biochemical curve class

Row | Structure (SMILES) | AC50 (Human ALDH3A1) [nM] | Efficacy (Human ALDH3A1; Table S5, biochemical) | CC-v2 (Human ALDH3A1; [1]) | AC50 (OE19 (3A1)) [nM] | Cell_Efficacy (OE19 (3A1); Table S5, OE19 cells) | Cell_CC-v2 (OE19 (3A1); Table S5, cellular curve class) | Efficacy (Human ALDH3A1; Table S4, biochemical) | CC-v2 (Human ALDH3A1; [2]) | Cell_Efficacy (OE19 (3A1); Table S4, OE19 cells) | Cell_CC-v2 (OE19 (3A1); Table S4, cellular curve class)
1 | Cc1ccc(CNC(=O)c2csc(N3CCN(c4cccc(C(F)(F)F)c4)CC3)n2)cc1F [NCGC01407934-01] | 28.2 | -101.06 | -1.1 | 342 | -95.79 | -1.1 |  |  |  | 
2 | O=C(NCc1cccc(Cl)c1)c1csc(N2CCN(c3cccc(C(F)(F)F)c3)CC2)n1 [NCGC01407982-01] | 23.7 | -97.73 | -1.1 | 811 | -88.39 | -1.2 |  |  |  | 
3 | CCc1ccc(N2CCN(c3nc(C(=O)NCc4cccc(C)c4)cs3)CC2)cc1 [NCGC01211128-01] | 910 |  |  | 3130 |  |  | -85.15 | -1.1 | -86.59 | -1.1
4 | Cc1cccc(CNC(=O)c2csc(N3CCN(c4cccc([S+](C)(=O)[O-])c4)CC3)n2)c1 [NCGC01210723-01] | 3640 |  |  | 1240 |  |  | -72.64 | -1.2 | -75.10 | -1.2
5 | N#CSc1ccc(NC(=O)c2csc(N3CCN(c4cccc(C(F)(F)F)c4)CC3)n2)c(F)c1 [NCGC01407980-01] | 15800 | -102.93 | -1.1 | 44.7 | -75.54 | -1.2 |  |  |  | 
6 | Cc1cccc(CNC(=O)c2csc(N3CCN(c4cccc(C)c4)CC3)n2)c1 [NCGC01211399-01] | 1150 |  |  | 5560 |  |  | -77.88 | -1.2 | -101.59 | -1.3
7 | Cc1cccc(CNC(=O)c2csc(N3CCN(c4cccc(OCc5ccc(Cl)cc5)c4)CC3)n2)c1 [NCGC01211114-01] | 460 |  |  | 1570 |  |  | -48.74 | -1.2 | -79.67 | -1.1
8 | O=C(NCc1cccc(N2CCC[S+]2(=O)[O-])c1)c1csc(N2CCN(c3cccc(C(F)(F)F)c3)CC2)n1 [NCGC01407948-01] | 631 | -52.77 | -1.2 |  | 0.00 | 5 |  |  |  | 
9 | Cc1cccc(CNC(=O)c2csc(N3CCN(c4ccccc4C)CC3)n2)c1 [NCGC01211138-01] | 1450 |  |  | 7850 |  |  | -88.86 | -1.1 | -88.54 | -1.1
10 | Cc1cccc(CNC(=O)c2csc(N3CCN(c4ccc(OC(F)(F)F)cc4)CC3)n2)c1 [NCGC01211384-01] | 650 |  |  | 3930 |  |  | -96.17 | -1.1 | -82.59 | -1.1
11 | COc1cc(C)cc(CNC(=O)c2csc(N3CCN(c4cccc(C(F)(F)F)c4)CC3)n2)c1 [NCGC01407935-01] | 14.1 | -100.75 | -1.1 | 1080 | -91.56 | -1.1 |  |  |  | 
12 | O=C(NCc1cccc(Oc2ccccc2)c1)c1csc(N2CCN(c3cccc(C(F)(F)F)c3)CC2)n1 [NCGC01407978-01] | 17.8 | -100.27 | -1.1 | 1530 | -119.85 | -2.1 |  |  |  | 
13 | COc1ccc(N2CCN(c3nc(C(=O)NCc4cccc(C)c4)cs3)CC2)c(OC)c1 [NCGC01211174-01] | 1150 |  |  | 8810 |  |  | -66.83 | -1.2 | -87.39 | -1.1
14 | Cc1ccccc1-c1cccc(CNC(=O)c2csc(N3CCN(c4cccc(C(F)(F)F)c4)CC3)n2)c1 [NCGC01407985-01] | 75 | -78.48 | -1.2 | 91 | -83.99 | -1.1 |  |  |  | 
15 | Cc1cccc(CNC(=O)c2csc(N3CCN(c4ccccc4Br)CC3)n2)c1 [Compound 9] | 410 |  |  | 8810 |  |  | -99.96 | -1.1 | -81.02 | -1.3
16 | Cc1cccc(CNC(=O)c2csc(N3CCN(c4ccc(F)c(Cl)c4)CC3)n2)c1 [Compound 12] | 510 |  |  | 990 |  |  | -99.84 | -1.1 | -76.59 | -1.1
17 | Cc1cccc(CNC(=O)c2csc(N3CCN(c4ccc(N5CCOCC5)cc4)CC3)n2)c1 [NCGC01211186-01] | 4080 |  |  | 3130 |  |  | -37.13 | -1.2 | -98.82 | -1.1
18 | O=C(Nc1ccc(F)cc1)c1ccc(CNC(=O)c2csc(N3CCN(c4cccc(C(F)(F)F)c4)CC3)n2)cc1 [NCGC01407706-01] | 89.2 | -65.00 | -1.2 |  | 0.00 | 4 |  |  |  | 
19 | COc1c(F)cc(N2CCN(c3nc(C(=O)NCc4cccc(C)c4)cs3)CC2)cc1F [NCGC01211123-01] | 580 |  |  | 1760 |  |  | -77.80 | -1.2 | -94.45 | -1.2
20 | Cc1cccc(CNC(=O)c2csc(N3CCN(c4ccc(Cl)c(Cl)c4)CC3)n2)c1 [NCGC01211120-01] | 510 |  |  | 790 |  |  | -83.25 | -1.1 | -88.59 | -1.1
21 | N#Cc1ccc(CNC(=O)c2csc(N3CCN(c4cccc(C(F)(F)F)c4)CC3)n2)cc1F [NCGC01397293-01] | 5.6 | -100.05 | -1.1 | 766 | -101.81 | -1.1 |  |  |  | 
22 | O=C(NCc1cccc(N2CCCC2=O)c1)c1csc(N2CCN(c3cccc(C(F)(F)F)c3)CC2)n1 [NCGC01397385-01] | 708 | -71.46 | -1.2 | 17800 | 23.55 | 5 |  |  |  | 
23 | O=C(Nc1ccc(CNC(=O)c2csc(N3CCN(c4cccc(C(F)(F)F)c4)CC3)n2)cc1)c1ccncc1 [NCGC01397389-01] |  | -20.50 | 4 | 7080 | -125.53 | -2.1 |  |  |  | 
24 | O=C(NCc1cccc(COc2ccccc2)c1)c1csc(N2CCN(c3cccc(C(F)(F)F)c3)CC2)n1 [Compound 18] | 14.1 | -100.33 | -1.1 | 43.1 | -79.42 | -1.1 |  |  |  | 
25 | CC(=O)c1ccc(CNC(=O)c2csc(N3CCN(c4cccc(C(F)(F)F)c4)CC3)n2)cc1 [NCGC01397292-01] | 20 | -100.00 | -1.1 | 683 | -111.50 | -2.1 |  |  |  | 
26 | N#Cc1cccc(CNC(=O)c2csc(N3CCN(c4cccc(C(F)(F)F)c4)CC3)n2)c1 [NCGC01397393-01] | 2.2 | -100.26 | -1.1 | 965 | -104.84 | -2.2 |  |  |  | 
